Results as given in patent US9226503B2, “Composition and method for attraction of emerald ash borer Agrilus planipennis fairmaire (coleoptera: buprestidae)” (Her Majesty the Queen in Right of Canada, as represented by …, priority 2011, dated 2016).

Key:
A. planipennis [1] = assay: Field trapping experiment 1 (2008), purple prism traps, Ontario; type: in vivo, Agrilus planipennis
Method: Field trapping. Three trapping experiments were carried out in green ash plantations (F. pennsylvanica Marsch) with low-to-moderate A. planipennis populations about 40 km southeast of Sarnia, Ontario (42° 58′ 0 N, 82° 24′ 0 W) in 2008, 2009 and 2010. Trees at these sites were generally healthy in appearance with low or no signs of decline, and only a small number of trees had obvious signs/symptoms of infestation by A. planipennis. In Ontario sites, trees were 20-25 years old, 4-6 m tall, 10-15 cm in diameter, and spaced about 2 m apart within a row and 2.5 m between rows. In 2010, the trapping experiment was replicated at four sites in Michigan, USA, in addition to the sites in Ontario. […] Traps were checked every 2 weeks and A. planipennis were collected, counted and sexed.
Experiment 1, conducted in Ontario in 2008, was designed to test for attractiveness of (3Z)-lactone (Bartelt et al. 2007), alone and in combination with two types of host volatiles: bark sesquiterpenes (Crook et al. 2008) and a binary blend of green leaf volatiles ((3Z)-hexenol and (2E)-hexenol) (Poland et al. 2005, de Groot et al. 2008). […] We selected Phoebe oil because it contained two additional sesquiterpenes that had been detected in ash trees and appeared to be more attractive than Manuka oil (Crook et al. 2008) and the (3Z)-hexenol and (2E)-hexenol combination based on results from de Groot et al. (2008). […]

A. planipennis [2] = assay: Field trapping 2011 experiment 1: dose-response to (3Z)-lactone with (3Z)-hexenol, dark green traps; type: in vivo, Agrilus planipennis; details: in combination with (3Z)-hexenol
Method: Two trapping experiments were conducted in green and white ash plantations (F. pennsylvanica Marsch and F. americana L.) located 40-60 km southeast of Sarnia, Ontario in 2011. Trees were 20-30 yr old, 5-8 m tall, 12-18 cm in diameter, and spaced 2-3 m apart within and between rows. Five sites were used in total: four were green ash and the fifth was a white ash plantation. Trees at four of the sites generally appeared healthy with few or no signs of decline and only a few with obvious signs and symptoms of infestation by A. planipennis. At the fifth site, obvious crown decline and signs of infestation were apparent on about one-quarter of trees.
Green prism sticky traps (0.30 cm×35.00 cm×58.75 cm) (Synergy Semiochemicals Corp., Burnaby, BC) were used in all field trials, deployed using modified umbrella rig spreaders (Zing Products, Westport, Mass.). Traps were spaced 20-25 m apart and lure treatments replicated in randomized complete block designs. Traps were deployed either using ropes tied between two trees or using a single line over a canopy branch, as described further below for each specific experimental objective. Traps were typically checked every 2 wk and A. planipennis were collected, counted, and sexed.
The two trapping experiments tested the (3Z)-lactone with and without (3Z)-hexenol, at different dosages and heights within the canopy. Experiment 1 was designed to determine the optimum release rate for attractiveness of (3Z)-lactone to male A. planipennis, in combination with (3Z)-hexenol. Dark green (540-nm wavelength) sticky traps (Francese et al 2010a) were suspended using ropes tied between two trees in the mid-canopy and baited with a (3Z)-hexenol lure at release rate of (50-100 mg/day) (Synergy Semiochemicals, Burnaby, B.C.) plus a rubber septum (Wheaton) loaded with either 0, 0.1 mg, 1.0 mg, 10.0 mg, or 50.0 mg of (3Z)-lactone. Respective release rates of the lactone were estimated as ˜2.4 μg/day; ˜22 μg/day; ˜160 μg/day; and −600 μg/day, based on volatile collections on Super-Q® at 25° C. (Silk et al. 2011). (3Z)-Lactone lures were estimated to last three weeks in the field and were replaced once. Trapping was conducted from 9 June-21 July. Lure treatments were replicated 10 times with eight blocks at one site (Anika Mills) and two blocks at a second site (Nauvoo Ranch). (3Z)-Hexenol lures were not changed during the experiment.
Numbers of A. planipennis captured in the trapping experiments were subjected to ANOVA separately for males and females. In experiment 1, ANOVA was used to test the effect of release rate on captures of females and males. Holm-Sidak comparisons were made between treatments and the control, (3Z)-hexenol alone. In experiment 2, we used the general linear model: mean catch=lactone+GLV+trap height+lactone*trap height+GLV*trap height+lactone*GLV+lactone*GLV*trap height+error, in SAS GLM (SAS Institute 1999-2003). Residuals were tested for homogeneity of variance and normality, and a ln(y+1) transformation was used where necessary. We present the untransformed last squares treatment means and their standard errors, along with statistics (P>F) from ANOVA of transformed data.

O=C1C/C=C\CCCCCCCCO1 [(3Z)-lactone, (3Z)-dodecen-12-olide]
trap captures compared to unbaited controls (A. planipennis [1]): not significantly attractive | release rate beyond which captures of males decline (A. planipennis [2]; dark green traps): ca. 160 μg/day | trap capture of males, effect of (3Z)-lactone release rate (A. planipennis [2]; 0-50.0 mg lures, p=0.035): varied significantly with (3Z)-lactone release rate | trap capture of females, effect of (3Z)-lactone release rate (A. planipennis [2]; 0-50.0 mg lures, p=0.315): not influenced by (3Z)-lactone release rate | captures of males compared to (3Z)-hexenol alone, 0.1 mg dose (A. planipennis [2]; 0.1 mg lure, release rate 2.4 μg/day at 25° C., p=0.003): highest | captures of males compared to (3Z)-hexenol alone, 1.0 mg dose (A. planipennis [2]; 1.0 mg lure, p=0.052): marginal increase in captures of males
